Test results taken from patent publication US20110118397A1, “RUBBER COMPOSITION” (BRIDGESTONE CORPORATION, priority 2008, published 2011).

Columns and labels:
[1] = octanol/water partition coefficient (log P) by high-performance liquid chromatography, JIS Z 7260-117 (2006)
Excerpt: (§1) In the present invention (including examples and the like described later), the octanol/water partition coefficient (log P) described above can be measured by a high-performance liquid chromatography according to JIS Z 7260-117 (2006), and it is defined by the following equation:
(§2) log P=log(^┌Co┘/^┌Cw┘) • Co: concentration of an examined substance in a 1-octanol layer • Cw: concentration of an examined substance in an aqueous layer
(§3) The octanol/water partition coefficients (log P) of the vulcanization accelerators obtained in the following respective production examples were measured by a high-performance liquid chromatography according to JIS Z 7260-117 (2006). A high-performance liquid chromatography manufactured by Shimadzu Corporation was used.

Excerpt for physchem: as §1, §2, §3

| melting point [°C] | chromatographic logP [1] | Compound | chromatographic logP (physchem) |
| --- | --- | --- | --- |
| 55 to 56 | 5.8 | CCCCN(Sc1nc2ccccc2s1)C(C)(C)C [N-n-butyl-N-t-butylbenzothiazole-2-sulfenamide] | – |
| – | 5.3 | CCCN(Sc1nc2ccccc2s1)C(C)(C)C [N-n-propyl-N-t-butylbenzothiazole-2-sulfenamide] | – |

Second part, the molecule before the results:

| Compound | melting point [°C] | chromatographic logP [1] | chromatographic logP (physchem) |
| --- | --- | --- | --- |
| CCN(Sc1nc2ccccc2s1)C(C)(C)C [N-ethyl-N-t-butylbenzothiazole-2-sulfenamide] | 60 to 61 | 4.9 | – |
| CC(C)N(Sc1nc2ccccc2s1)C(C)(C)C [N-i-propyl-N-t-butylbenzothiazole-2-sulfenamide] | – | – | 5.1 |
| CN(Sc1nc2ccccc2s1)C(C)(C)C [N-methyl-N-t-butylbenzothiazole-2-sulfenamide] | 56 to 58 | 4.5 | – |
